One may read the IC50 as the midpoint of a concentration-inhibition curve. For orientation: Kd means the free concentration of one partner at which half of the binding sites on the other are occupied at equilibrium, for simple one-to-one binding.

The target in assay [1] is T1, Musca nAChR; housefly (Musca domestica) nAChR.
T1 construct: gene nAChRalpha1; pentameric channel
In words: [3H]NMI radioligand displacement. The format is binding. To be noted: competition with [3H]NMI. (Loss of bound radioactivity is the signal in a displacement assay; it reports binding, not function.)

Assay [2] concerns the target T2, cockroach nAChRs; cockroach nAChR membranes.
T2 construct: gene nAChRalpha1; pentameric channel
In words: fluorescence polarization saturation binding. Also noted: species or system Periplaneta americana. To be noted: DitIMI irradiated at 320 nm for 15 min (photostationary mixture, 67% closed form); 227 mg/L membranes; 22 °C, 1 h.

In turn, `O=[N+]([O-])N=C1NCCN1Cc1ccc(Cl)nc1` [IMI] came in with a half-inhibitory concentration (IC50) in assay [1] of 28.8 nM.

For `Cc1sc(CN2CCN(Cc3ccc(Cl)nc3)C2=N[N+](=O)[O-])cc1C1=C(c2cc(CN3CCN(Cc4ccc(Cl)nc4)C3=N[N+](=O)[O-])sc2C)C(F)(F)C(F)(F)C1(F)F` [open-DitIMI], the IC50 in assay [1] (unirradiated open form) came to 892 nM.

As to `CC12SC(CN3CCN(Cc4ccc(Cl)nc4)C3=N[N+](=O)[O-])=CC1=C1C(=C3C=C(CN4CCN(Cc5ccc(Cl)nc5)C4=N[N+](=O)[O-])SC32C)C(F)(F)C(F)(F)C1(F)F` (stereo not shown) [closed-DitIMI], the IC50 in assay [1] (after UV illumination, photostationary mixture (67% closed form)) came out at 33.2 nM. For the same compound, in assay [2], the Kd worked out at 13.5 nM.

The values are drawn from paper doi:10.1101/2021.08.27.457891v1, “Optical Control of Invertebrate nAChR and Behaviors with Dithienylethene-Imidacloprid” (biorxiv, 2021).
